The values that follow come from US20190151312A1, “HEPARAN SULFATE BIOSYNTHESIS INHIBITORS FOR THE TREATMENT OF DISEASES” (BioMarin Pharmaceutical Inc., priority 2014, published 2019).

Where two headings read alike, the source gives them in different places.

Experiment [1] has as its system cultured primary human fibroblast from MPS patients. Particulars: cited from earlier work.
The test system of experiment [2] is GM01896 cells (MPS II dermal fibroblasts). Briefly: Assay 1: MPS cellular assay, MPS II (heparan sulfate disaccharide biomarkers by LC-MS). Type of experiment: cell-based, human. Particulars: Assay 1 for MPS II, heparan sulfate disaccharide biomarkers (I2a4, I2a6, I2S0 and/or I2S6), read-out: IC50 Range. In short, it runs like this:
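MPS II patient dermal fibroblasts (GM01896) treated with compound at ≤30 μM for 4 to 21 days. Heparan sulfate GAGs isolated by anion exchange, digested with heparinases I-III, aniline-tagged against [13C6]aniline standards and quantified by LC-MS; IC50 from curve fitting. Viability monitored by alamar blue or ATP.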

As for `[Na+].[O-][Cl+2]([O-])[O-]` [sodium chlorate], in experiment [1] (30-60 mM sodium chlorate), the “effect on synthesis of PAPs (sulfate donor)” value is listed as “inhibits the synthesis of PAPs”. In addition, the “sulfation of heparan sulfate produced by cells” value in experiment [1] (cells grown in the presence of sodium chlorate) is listed as “reduced sulfation”.
As to `Cn1nc(CCN2CCOCC2)c2ccc(-c3cc(Nc4ccc(-n5cccn5)cc4)nc(N4CCOCC4)n3)cc21` [{6-[1-methyl-3-(2-morpholin-4-ylethyl)(1H-indazol-6-yl)]-2-morpholin-4-ylpyrimidin-4-yl}(4-pyrazolylphenyl)amine], in experiment [2], the IC50 (usually the concentration at which inhibition is half-maximal) is below 500 nM.
As for `Cn1cccc1-c1ccc(Nc2cc(-c3ccc4c(CCN5CCOCC5)nn(C)c4c3)nc(N3CCOCC3)n2)cc1` [{6-[1-methyl-3-(2-morpholin-4-ylethyl)(1H-indazol-6-yl)]-2-morpholin-4-ylpyrimidin-4-yl}[4-(1-methylpyrrol-2-yl)phenyl]amine], in experiment [2] (Homo sapiens, Fibroblast), the 50% inhibitory concentration (IC50) is below 500 nM.
The same measure, in the same setting: to `Cn1ccc2ccc(Nc3cc(-c4ccc5c(CCN)nn(C)c5c4)nc(N4CCOCC4)n3)cc21` [{6-[3-(2-aminoethyl)-1-methyl(1H-indazol-6-yl)]-2-morpholin-4-ylpyrimidin-4-yl}(1-methylindol-6-yl)amine] belongs below 500 nM; to `Cn1ccc2ccc(Nc3cc(-c4ccc5c(CCCN)nn(C)c5c4)nc(N4CCOCC4)n3)cc21` [{6-[3-(3-aminopropyl)-1-methyl(1H-indazol-6-yl)]-2-morpholin-4-ylpyrimidin-4-yl}(1-methylindol-6-yl)amine], below 500 nM; to `Cn1nc(CCCN)c2ccc(-c3cc(Nc4ccc(Cl)cc4)nc(N4CCOCC4)n3)cc21` [{6-[3-(3-aminopropyl)-1-methyl(1H-indazol-6-yl)]-2-morpholin-4-ylpyrimidin-4-yl}(4-chlorophenyl)amine], 1000 to 5000 nM.
With `Clc1ccc(Nc2cc(-c3ccc4c(Cl)nn(CCCN5CCOCC5)c4c3)nc(N3CCOCC3)n2)cc1` [{6-[3-chloro-1-(3-morpholin-4-ylpropyl)(1H-indazol-6-yl)]-2-morpholin-4-ylpyrimidin-4-yl}(4-chlorophenyl)amine], the concentration for half-maximal inhibition (IC50) in experiment [2] (Homo sapiens, Fibroblast) lay in the range of 1000 to 5000 nM.
For the compound “[6-(1-methyl(1H-indazol-6-yl))-2-morpholin-4-ylpyrimidin-4-yl][4-(3-methylpyrazolyl)phenyl]amine”, the IC50 in experiment [2] is below 500 nM.
Same read-out and setting: to “{6-[1-methyl-3-(2-morpholin-4-ylethyl)(1H-indazol-6-yl)]-2-morpholin-4-ylpyrimidin-4-yl}[4-(3-methylpyrazolyl)phenyl]amine” belongs below 500 nM.
